Reference: US11826399B2, “Chlorotoxin agents and uses thereof” (Eisai Inc., priority 2017, dated 2023)
Several values for one entry are separate records, joined by “and”; a condition that tells them apart may be missing. Equal values may be shown once.

What was measured:
[1] = tested on: PC-3 human prostate cancer cells; assay: Co-administration of Cryptophycin Payload with CTX or iRGD in subcutaneous PC-3 xenograft model; type: in vivo, mouse; settings: Cryptophycin Payload alone at 0.4 mg/kg IV
Method: PC-3 human prostate cancer cells (ATCC CRL-1435) were grown in RPMI-1640 medium supplemented with 10% FBS. For inoculation, 2×10^6 PC-3 cancer cells were injected subcutaneously into mice near the right axillary area using a 27-gauge needle in a volume of 0.1 mL. Mice were immune-compromised NU/NU nude females, approximately 6 weeks old from Charles River Labs. Tumors were measured at least twice weekly using calipers and mice were randomized into treatment groups based on tumor size when the average tumor reached approximately 180 mm^3. All treatments were initiated 17 days after tumor inoculation. The experiment included a vehicle-treated group and drug-treated groups (n=5). […]
General health of the mice was monitored and mortality recorded daily. Tumor volume was assessed by caliper (Mitutoyo, Aurora, IL) measurements (mm) using the formula (1×w^2)/2=mm^3, where 1 and w refer to the larger and smaller perpendicular dimensions collected at each measurement. Tumor dimensions were recorded twice per week starting at the initiation of drug treatment. Body weights were recorded twice per week starting on the first day of treatment. Relative body weight was calculated as follows: Relative body weight=(body weight on day of measurement/body weight on first day of treatment). […] The mean±SEM for tumor volume and mean±SEM for relative body weight for each experimental group was calculated. […]

[2] = Plasma and tissue distribution of Cryptophycin Payload and Cryptophycin Metabolite 1 after Cryptophycin Payload alone or with CTX in PC-3 xenograft nude mice (LC-MS/MS); type: in vivo, mouse
Method: For the present experiment, materials, methods, drugs and model were as described in Example 21. […] Following intravenous administration, whole blood samples were collected at predetermined time points via cardiac puncture (n=3 mice per time point). Blood samples were centrifuged to obtain plasma and subsequently stored at […] or lower pending analysis. Additionally, at each time point, kidney, liver, small intestine, brain, heart, and tumor were harvested by removing entire specimen from surrounding tissues (only a portion of liver and small intestine were removed). After removal, tissues were rinsed with normal saline solution (contents of small intestine were emptied) and blotted dry with clean adsorptive tissue. Once dried, the specimens were weighed and stored at −20° C. or lower pending analysis. […] Pharmacokinetic (PK) parameters were calculated. Mean plasma and tissue concentrations were used to calculate mean PK parameters. Skin and skeletal muscle which were not assessed due to difficulty of homogenization.
Vehicle for single dose group was 10% ethanol, 5% Tween 80, 85% saline. Vehicle for combination treatment was 5% ethanol, 2.5% Tween 80, 92.5% saline.

[3] = Brain, Payload 0.4 mg/kg + CTX 16 mg/kg IV
[4] = Brain, Payload 0.4 mg/kg IV alone
[5] = Heart, Payload 0.4 mg/kg + CTX 16 mg/kg IV
[6] = Heart, Payload 0.4 mg/kg IV alone
[7] = Kidney, Payload 0.4 mg/kg + CTX 16 mg/kg IV
[8] = Kidney, Payload 0.4 mg/kg IV alone
[9] = Liver, Payload 0.4 mg/kg + CTX 16 mg/kg IV
[10] = Liver, Payload 0.4 mg/kg IV alone
[11] = Payload 0.4 mg/kg + CTX 16 mg/kg IV, 0.083 h
[12] = Payload 0.4 mg/kg + CTX 16 mg/kg IV, 0.5 h
[13] = Payload 0.4 mg/kg + CTX 16 mg/kg IV, 1 h
[14] = Payload 0.4 mg/kg + CTX 16 mg/kg IV, 2 h
[15] = Payload 0.4 mg/kg + CTX 16 mg/kg IV, 6 h
[16] = Payload 0.4 mg/kg + CTX 16 mg/kg IV, 24 h

For `CCCCNC(=O)Cc1ccccc1SSC(C)(C)CCN1CCN(Cc2ccc(C3OC3C(C)C3CC=CC(=O)NC(Cc4ccc(OC)c(Cl)c4)C(=O)NCC(C)(C)C(=O)NC(CC(C)C)C(=O)O3)cc2)CC1` (stereo not drawn) [Cryptophycin Payload], the “Antitumor activity (tumor volume)” value [1] was “significant antitumor activity”, the “AUC(0-t) of Cryptophycin Payload” value [2, 3] was 3.69 ng·h/g and the “tmax of Cryptophycin Payload” value [2, 3] was 4.8 min. The “TPI of Cryptophycin Payload” value ([2]; Brain, Payload 0.4 mg/kg + CTX 16 mg/kg IV, AUC0-2 h tissue/AUC0-2 h plasma) was 0.0315 mL/g and 0.0315^d mL/g, the “AUC(0-inf) of Cryptophycin Payload” value [2, 4] was 3.57 ng·h/g and the “AUC(0-t) of Cryptophycin Payload” value [2, 4] was 3.02 ng·h/g. For the same compound, the “t1/2 of Cryptophycin Payload” value [2, 4] was 56.5 min, the “tmax of Cryptophycin Payload” value [2, 4] was 4.98 min and 4.8 min and the “TPI of Cryptophycin Payload” value ([2]; Brain, Payload 0.4 mg/kg IV alone, AUC0-2 h tissue/AUC0-2 h plasma) was 0.0208 mL/g and 0.0208^d mL/g. For the same compound, the “AUC(0-inf) of Cryptophycin Payload” value [2, 5] was 62.0 ng·h/g, the “AUC(0-t) of Cryptophycin Payload” value [2, 5] was 59.2 ng·h/g and the “t1/2 of Cryptophycin Payload” value [2, 5] was 86.4 min. The “tmax of Cryptophycin Payload” value [2, 5] was 4.8 min, the “TPI of Cryptophycin Payload” value ([2]; Heart, Payload 0.4 mg/kg + CTX 16 mg/kg IV, AUC0-inf tissue/AUC0-inf plasma) was 0.481 mL/g and the “AUC(0-inf) of Cryptophycin Payload” value [2, 6] was 38.9 ng·h/g. The “AUC(0-t) of Cryptophycin Payload” value [2, 6] was 36.8 ng·h/g, the “t1/2 of Cryptophycin Payload” value [2, 6] was 103 min and the “tmax of Cryptophycin Payload” value [2, 6] was 4.98 min and 4.8 min. The “TPI of Cryptophycin Payload” value ([2]; Heart, Payload 0.4 mg/kg IV alone, AUC0-inf tissue/AUC0-inf plasma) was 0.253 mL/g, the “AUC(0-inf) of Cryptophycin Payload” value [2, 7] was 1230 ng·h/g and the “AUC(0-t) of Cryptophycin Payload” value [2, 7] was 1210 ng·h/g. The “t1/2 of Cryptophycin Payload” value [2, 7] was 251 min, the “tmax of Cryptophycin Payload” value [2, 7] was 30 min and the “TPI of Cryptophycin Payload” value ([2]; Kidney, Payload 0.4 mg/kg + CTX 16 mg/kg IV, AUC0-inf tissue/AUC0-inf plasma) was 9.53 mL/g. For the same compound, the “AUC(0-inf) of Cryptophycin Payload” value [2, 8] was 826 ng·h/g, the “AUC(0-t) of Cryptophycin Payload” value [2, 8] was 804 ng·h/g and the “t1/2 of Cryptophycin Payload” value [2, 8] was 282 min. For the same compound, the “tmax of Cryptophycin Payload” value [2, 8] was 4.98 min and 4.8 min, the “TPI of Cryptophycin Payload” value ([2]; Kidney, Payload 0.4 mg/kg IV alone, AUC0-inf tissue/AUC0-inf plasma) was 5.36 mL/g and the “AUC(0-t) of Cryptophycin Payload” value [2, 9] was 15.1 ng·h/g. The “tmax of Cryptophycin Payload” value [2, 9] was 60 min, the “TPI of Cryptophycin Payload” value ([2]; Liver, Payload 0.4 mg/kg + CTX 16 mg/kg IV, AUC0-6 h tissue/AUC0-6 h plasma) was 0.118 mL/g and 0.118^c mL/g and the “AUC(0-t) of Cryptophycin Payload” value [2, 10] was 9.65 ng·h/g. The “tmax of Cryptophycin Payload” value [2, 10] was 4.98 min and 4.8 min, the “TPI of Cryptophycin Payload” value ([2]; Liver, Payload 0.4 mg/kg IV alone, AUC0-6 h tissue/AUC0-6 h plasma) was 0.0631 mL/g and 0.0631^c mL/g and the “Concentration of Cryptophycin Payload, Brain, Mean” value (“Concentration … Brain, Mean” for short) [2, 11] was 3.97 ng/g. For the same compound, the “Concentration of Cryptophycin Payload, Heart, Mean” value (from here on “Concentration … Heart, Mean”) [2, 11] was 47.3 ng/g, the “Concentration of Cryptophycin Payload, Kidney, Mean” value (from here on “Concentration … Kidney, Mean”) [2, 11] was 389 ng/g and the “Concentration of Cryptophycin Payload, Liver, Mean” value (shortened to “Concentration … Liver, Mean”) [2, 11] was 3.89 ng/g. For the same compound, the “Concentration of Cryptophycin Payload, Plasma, Mean” value (shortened to “Concentration … Plasma, Mean”) [2, 11] was 268 ng/mL, the “Concentration of Cryptophycin Payload, Small Intestine, Mean” value (“Concentration … Small Intestine, Mean” below) [2, 11] was 19.8 ng/g and the “Concentration of Cryptophycin Payload, Tumor, Mean” value (shortened to “Concentration … Tumor, Mean”) [2, 11] was 12.5 ng/g. The “Concentration … Brain, Mean” value [2, 12] was 2.09 ng/g, the “Concentration … Heart, Mean” value [2, 12] was 41.3 ng/g and the “Concentration … Kidney, Mean” value [2, 12] was 411 ng/g. The “Concentration … Liver, Mean” value [2, 12] was 7.13 ng/g, the “Concentration … Plasma, Mean” value [2, 12] was 37.9 ng/mL and the “Concentration … Small Intestine, Mean” value [2, 12] was 13.4 ng/g. For the same compound, the “Concentration … Tumor, Mean” value [2, 12] was 10.3 ng/g, the “Concentration … Brain, Mean” value [2, 13] was 2.07 ng/g and the “Concentration … Heart, Mean” value [2, 13] was 18.7 ng/g. For the same compound, the “Concentration … Kidney, Mean” value [2, 13] was 317 ng/g, the “Concentration … Liver, Mean” value [2, 13] was 7.13 ng/g and the “Concentration … Plasma, Mean” value [2, 13] was 43.8 ng/mL. The “Concentration … Small Intestine, Mean” value [2, 13] was 15.5 ng/g, the “Concentration … Tumor, Mean” value [2, 13] was 9.46 ng/g and the “Concentration … Brain, Mean” value [2, 14] was 0.703 ng/g. The “Concentration … Heart, Mean” value [2, 14] was 6.37 ng/g, the “Concentration … Kidney, Mean” value [2, 14] was 179 ng/g and the “Concentration … Liver, Mean” value [2, 14] was 2.13 ng/g. The “Concentration … Plasma, Mean” value [2, 14] was 7.53 ng/mL, the “Concentration … Small Intestine, Mean” value [2, 14] was 5.66 ng/g and the “Concentration … Tumor, Mean” value [2, 14] was 10.1 ng/g. For the same compound, the “Concentration … Brain, Mean” value [2, 15] was “BLQ”, the “Concentration … Heart, Mean” value [2, 15] was 1.39 ng/g and the “Concentration … Kidney, Mean” value [2, 15] was 35.9 ng/g. The “Concentration … Liver, Mean” value [2, 15] was 0.632 ng/g, the “Concentration … Plasma, Mean” value [2, 15] was 0.537 ng/mL and the “Concentration … Small Intestine, Mean” value [2, 15] was 0.873 ng/g. For the same compound, the “Concentration … Tumor, Mean” value [2, 15] was 2.80 ng/g, the “Concentration … Brain, Mean” value [2, 16] was “BLQ” and the “Concentration … Heart, Mean” value [2, 16] was “BLQ”.
